Results on 1 compound are retold here after US11197908B2, “Peptoids and methods for attenuating inflammatory response” (THE BOARD OF TRUSTEES OF THE UNIVERSITY OF ARKANSAS, priority 2018, dated 2021).

One test has as its system IL-1β. Nature of the test: IL-1β in supernatant of THP-1 macrophages co-incubated with peptoid and LPS (ELISA). The class given is cell-based, human. Conditions: peptoid 50 μM with 2 ng/mL LPS, 3 days; vs LPS alone. How it is done: THP-1 monocytes were differentiated into macrophages through exposure to phorbol 12-myristate 13-acetate (PMA) for three days prior to experimentation 10. […] Upon differentiation, these cells were then incubated (3 days) with media containing JPT1a (50, 10, or 2 μM) alone or JPT1a (50, 10, or 2 μM) in the presence of low-dose (2 ng/mL) lipopolysaccharide (LPS) as a chronic pro-inflammatory stimulus 11. Treatment with 2 ng/mL LPS alone served as a positive control, while treatment with an equivalent volume of buffer diluted into media served as the vehicle. Cellular supernatant was harvested on day 3 12; these samples were immediately centrifuged at 1200 rpm for 10 min at 25° C. to remove any cells or debris. […] All multi-channel images were converted to TIFF file format via ImageJ64 software for quantitative image analysis using a custom subroutine written in Matlab™ software to obtain the average RAGE expression per volume of cells, and the data generated was assessed for statistical significance using GraphPad Prism 7.0 software 15.
As shown in FIGS. 2B-2D, THP-1 macrophages were treated with JPT1a alone (white) or in the presence of a chronic low-dose (2 ng/mL) of LPS (grey), for 3 days prior to supernatant harvest and storage. Examination of the supernatant via ELISA determined the concentrations of (FIG. 2B) IL-1β, (FIG. 2C) IL-6, and (FIG. 2D) IL-8. […]
In general terms: ELISA stands for enzyme-linked immunosorbent assay.

For a further test, the target named is RAGE (Homo sapiens, UniProt Q15109). Nature of the test: Binding affinity for RAGE from binding equilibrium attained in solution (competition ELISA). Particulars: 20 nM RAGE, JPT1a 0 to 1000 nM, overnight. How it is done:
Definitive binding affinity of JPT1a for RAGE was determined from binding equilibrium attained in solution. As shown in FIGS. 8A-8B, 96-well plates coated with 500 nM JPT1a were treated with overnight incubations containing 20 nM RAGE and JPT1a in concentrations ranging from 0 nM to 1000 nM. Absorbance values were used to calculate relative [RAGE]bound and [RAGE]free via the […] (Friguet B, Chaffotte A F, Djavadi-Ohaniance L, Goldberg M E. Measurements of the true affinity constant in solution of antigen-antibody complexes by enzyme-linked immunosorbent assay. J Immunol Methods. 1985; 77(2):305-319; Rath S, Stanley C M. An inhibition enzyme immunoassay for estimating relative antibody affinity and affinity heterogeneity. 1988; 106:245-249; Newton P, Harrison P, Clulow S. A Novel Method for Determination of the Affinity of Protein: Protein Interactions in Homogeneous Assays. 2008:674-682). FIG. 8A. […] Black dashed lines indicate 95% confidence interval, and gray dashed lines indicate 95% prediction interval, n=4. FIG. 8B. […] Dashed lines indicate 95% confidence interval, n=3.

Another test addresses T1, Aβ1-40 (Homo sapiens, UniProt P05067).
T1 construct: modulate Aβ1-40 aggregation
Conditions: cited from earlier work.

A further test concerns IL-8. The test can be described thus: IL-8 expression in previously LPS-stimulated THP1 macrophages (ELISA). Particulars: 25, 5, 1 μM added after 48 h of 2 ng/mL LPS, additional 24 h. The test is classed as cell-based, human. How it is done:
THP-1 monocytes were differentiated as described above 20. Upon differentiation, these cells were then incubated (48 h) with media containing low-dose (2 ng/mL) LPS as a chronic pro-inflammatory stimulus 21. Following incubation, JPT1a or JPT1 was added for final concentrations of 25, 5, and 1 μM 22, and cells were incubated an additional 24 h. Treatment with 2 ng/mL LPS alone served as a positive control, while treatment with an equivalent volume of buffer diluted into media served as the vehicle. Media was collected for later assessment of cytokines via ELISA as described above 23. Cells were fixed and stained for RAGE, phalloidin (cytoplasmic marker), and DAPI (nuclear marker) 24. Each channel was imaged with a Zeiss LSM 510 META Confocal Scanning Laser Microscope using a plan-neofluar 40×/1.3 oil DIC immersion objective; three of these multi-channel images were obtained from each slide in each experiment. 25 All multi-channel images were converted to TIFF file format via ImageJ64 software for quantitative image analysis using a custom subroutine written in Matlab™ software to obtain the average RAGE expression per volume of cells, and the data generated was assessed for statistical significance using GraphPad Prism 7.0 software 26.
As shown in FIGS. 4B-4D, THP1 macrophages were treated with low-dose LPS at 2 ng/mL. […]

Like-named read-outs stand apart in the source and are kept apart here. Where a SMILES comes first, the peptide text is derived from it. [ ]: non-standard residue; d: D form. N(1S-Me-propyl)Gly = CC[C@H](C)NCC(=O)O; Nspe = C[C@H](NCC(=O)O)c1ccccc1; Nlys = NCCCCNCC(=O)O

Sequence of RAGE (Q15109 23-404): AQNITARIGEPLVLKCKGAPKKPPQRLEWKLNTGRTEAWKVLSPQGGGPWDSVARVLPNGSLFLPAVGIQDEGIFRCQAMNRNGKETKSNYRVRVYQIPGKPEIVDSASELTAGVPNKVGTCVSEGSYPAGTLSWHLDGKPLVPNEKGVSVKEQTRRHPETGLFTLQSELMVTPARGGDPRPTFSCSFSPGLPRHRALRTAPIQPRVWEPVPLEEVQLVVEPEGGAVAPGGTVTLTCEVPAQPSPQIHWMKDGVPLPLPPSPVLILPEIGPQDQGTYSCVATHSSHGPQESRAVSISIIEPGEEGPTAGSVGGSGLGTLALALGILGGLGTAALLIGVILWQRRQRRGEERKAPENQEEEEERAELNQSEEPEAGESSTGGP
T1 sequence (P05067 672-711 limits assumed): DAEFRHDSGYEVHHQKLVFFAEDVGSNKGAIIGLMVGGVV

Consider `CC[C@H](C)N(CC(=O)N(CC(=O)N(CC(=O)N(CC(=O)N(CC(=O)N(CC(=O)N(CC(N)=O)[C@@H](C)c1ccccc1)[C@@H](C)c1ccccc1)[C@@H](C)CC)[C@@H](C)c1ccccc1)[C@@H](C)c1ccccc1)[C@@H](C)CC)C(=O)CNCCCCN` [JPT1a] (H-[Nlys][N(1S-Me-propyl)Gly][N(1S-Me-propyl)Gly][Nspe][Nspe][N(1S-Me-propyl)Gly][Nspe][Nspe]-NH2), for which, in the test with IL-1β, the “LPS-induced production of IL-1β” value was “significantly attenuates”. Also, the Kd was 0.079 ± 0.0284 µM on RAGE (n=3, read-out: Kd, plot of specific binding (one epitope)) and 0.139 µM at RAGE (n=4, read-out: binding affinity for RAGE (Scatchard plot)). At Aβ1-40, the Aβ1-40 aggregation entry was “capacity to modulate Aβ1-40 aggregation”. Further, in the test with IL-8, the “IL-8 production of previously stimulated macrophages” value is “does not affect cytokine production”.
